# In patent EP0326922A2 (priority 1988, dated 1989):
# What was measured:
# Saccharomyces cerevisiae = assay: MIC (MHK) determination; type: cell-based; conditions: read-out: MHK-Werte
# Pyricularia oryzae 154 = assay: microbe, parasite or virus in culture; type: cell-based; conditions: Pyricularia oryzae, 154, read-out: MHK-Werte
# Aspergillus niger = assay: MIC (MHK) determination; type: cell-based; conditions: read-out: MHK-Werte
# [1] = solvents in which the substance dissolves, in words
# Botrytis cinerea 47 = assay: MIC (MHK) determination; type: cell-based; conditions: read-out: MHK-Werte
# Candida albicans = assay: MIC (MHK) determination; type: cell-based; conditions: read-out: MHK-Werte
# Cercospora beticola 71 = assay: MIC (MHK) determination; type: cell-based; conditions: read-out: MHK-Werte
# Botrytis cinerea 16 = assay: MIC (MHK) determination; type: cell-based; conditions: read-out: MHK-Werte
# Hefe 5060 = assay: MIC (MHK) determination; type: cell-based; conditions: read-out: MHK-Werte
# Fusarium culmorum 100 = assay: MIC (MHK) determination; type: cell-based; conditions: read-out: MHK-Werte
# [2] = test system: Penicillium digitatum 135; assay: MIC (MHK) determination; type: cell-based; conditions: read-out: MHK-Werte
# Alternaria solani 5 = assay: MIC (MHK) determination; type: cell-based; conditions: read-out: MHK-Werte
# [3] = test system: Trichophyton mentagrophytes; assay: MIC (MHK) determination; type: cell-based; conditions: read-out: MHK-Werte
# Staph. aureus 209 P = assay: MIC (MHK) determination; type: cell-based; conditions: Staphylococcus aureus, read-out: MHK-Werte
# Cladosporuim resinae = assay: MIC (MHK) determination; type: cell-based; conditions: read-out: MHK-Werte
# Botrytis cinerea 57 = assay: MIC (MHK) determination; type: cell-based; conditions: read-out: MHK-Werte
# E. coli 9632 = assay: MIC (MHK) determination; type: cell-based; conditions: Escherichia coli, read-out: MHK-Werte
SMILES,MIC (Saccharomyces cerevisiae) [µg/mL],MIC (Pyricularia oryzae 154) [µg/mL],MIC (Aspergillus niger) [µg/mL],Löslichkeit [1],MIC (Botrytis cinerea 47) [µg/mL],MIC (Candida albicans) [µg/mL],MIC (Cercospora beticola 71) [µg/mL],MIC (Botrytis cinerea 16) [µg/mL],MIC (Hefe 5060) [µg/mL],MIC (Fusarium culmorum 100) [µg/mL],MIC [2] [µg/mL],MIC (Alternaria solani 5) [µg/mL],MIC [3] [µg/mL],MIC (Staph. aureus 209 P) [µg/mL],MIC (Cladosporuim resinae) [µg/mL],MIC (Botrytis cinerea 57) [µg/mL],MIC (E. coli 9632) [µg/mL]
"COC(C/C=C\C=C\CC/C=C/CC(C)/C=C/C(=C/C(=O)O)CC(=O)O)/C(C)=C\C=C(/C)C(=O)O (stereo not drawn) [Isobongkrekinsäure, 3-Carboxymethyl-17-methoxy-6,18,21-trimethyldocosa-2E,4E,8E,12E,14Z,18Z,20E-hepta-en-1,22-disäure]",> 125,31.2,62.5,"Wäßriges Alkali, schwerlöslich in MeOH und Wasser",15.6,> 125,15.6,62.5,> 125,7.8,62.5,62.5,125,125,250,31.2,> 125
COC(=O)/C=C(/C=C/C(C)C/C=C/CC/C=C/C=C\CC(OC)/C(C)=C\C=C(/C)C(=O)OC)CC(=O)OC (stereo not drawn) [Isobongkrekinsäure-trimethylester],,,,"CHCl3, CH2Cl2,MeOH, Aceton, Äthylacetat und Petroläther",,,,,,,,,,,,,
